Results reported in ChEMBL document CHEMBL1201862, “PubChem BioAssay data set” (2004).
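How tested: cells in 96-well plates exposed to compound for 48 hours at five concentrations. Abbreviation: GI50, concentration required for 50% inhibition of growth.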 Calls of active or inactive are those of the source. No stated cut-off is given here; in the data, active = GI50 up to about 1.1 µM and inactive = higher.

Columns and labels:
Experiment in all cases: NCI anticancer screen, dose series, 48 h
NCI-H460 = test system: NCI-H460
RPMI-8226 = test system: RPMI-8226
SK-MEL-2 = test system: SK-MEL-2
HCT-116 = test system: HCT-116
OVCAR-3 = test system: OVCAR-3
SNB-75 = test system: SNB-75
MDA-N = test system: MDA-N
MDA-MB-435 = test system: MDA-MB-435
NCI/ADR-RES = test system: NCI/ADR-RES
DU-145 = test system: DU-145
MDA-MB-231 = test system: MDA-MB-231
RXF 393 = test system: RXF 393
KM12 = test system: KM12
LOX IMVI = test system: LOX IMVI
HOP-92 = test system: HOP-92
K562 = test system: K562
HOP-62 = test system: HOP-62
M14 = test system: M14
SR = test system: SR
Malme-3M = test system: Malme-3M

SMILES	GI50 (NCI-H460)	GI50 (RPMI-8226)	GI50 (SK-MEL-2)	GI50 (HCT-116)	GI50 (OVCAR-3)	GI50 (SNB-75)	GI50 (MDA-N)	GI50 (MDA-MB-435)	GI50 (NCI/ADR-RES)	GI50 (DU-145)	GI50 (MDA-MB-231)	GI50 (RXF 393)	GI50 (KM12)	GI50 (LOX IMVI)	GI50 (HOP-92)	GI50 (K562)	GI50 (HOP-62)	GI50 (M14)	GI50 (SR)	GI50 (Malme-3M)
COc1nc(Cl)nc(N[C@H](C)c2c3ccccc3cc3ccccc23)n1	17 µM (inactive)	5.3 µM (inactive)	15.8 µM (inactive)	12.4 µM (inactive)	11.1 µM (inactive)	21.8 µM (inactive)	2.71 µM (inactive)	4.31 µM (inactive)	14.2 µM (inactive)	12.4 µM (inactive)	13.9 µM (inactive)	12.5 µM (inactive)	11.7 µM (inactive)	15.6 µM (inactive)	18.6 µM (inactive)	8.49 µM (inactive)	14.9 µM (inactive)	–	–	–
O=C(Nc1ccc(I)cc1C(=O)NCCO)c1cccs1	85.3 µM (inactive)	53.5 µM (inactive)	> 100 µM (inactive)	> 100 µM (inactive)	> 100 µM (inactive)	–	–	> 100 µM (inactive)	> 100 µM (inactive)	–	–	> 100 µM (inactive)	> 100 µM (inactive)	> 100 µM (inactive)	–	> 100 µM (inactive)	> 100 µM (inactive)	> 100 µM (inactive)	49.7 µM (inactive)	–
Cc1cccc2sc(-c3ccc(O)cc3)nc12	18.1 µM (inactive)	20.9 µM (inactive)	17.7 µM (inactive)	15.6 µM (inactive)	16.1 µM (inactive)	12.6 µM (inactive)	3.97 µM (inactive)	11 µM (inactive)	19.3 µM (inactive)	17.8 µM (inactive)	19.8 µM (inactive)	16.9 µM (inactive)	15.5 µM (inactive)	18.4 µM (inactive)	–	33.3 µM (inactive)	–	15.2 µM (inactive)	22 µM (inactive)	16.9 µM (inactive)
O=C1CN2Cc3cc(N4CCOCC4)ccc3N=C2N1	41.5 µM (inactive)	67 µM (inactive)	42.7 µM (inactive)	21.3 µM (inactive)	30.1 µM (inactive)	31.5 µM (inactive)	–	22.9 µM (inactive)	31.3 µM (inactive)	49.5 µM (inactive)	88.1 µM (inactive)	73.3 µM (inactive)	43.3 µM (inactive)	> 100 µM (inactive)	> 100 µM (inactive)	2.91 µM (inactive)	47.1 µM (inactive)	33 µM (inactive)	66.1 µM (inactive)	89.1 µM (inactive)
CCN(CC)CCCNC(=O)c1ccccc1Nc1c(Cl)cccc1Cl	–	5.68 µM (inactive)	–	11.5 µM (inactive)	–	3.43 µM (inactive)	–	–	–	–	–	8.11 µM (inactive)	–	8.55 µM (inactive)	–	6.76 µM (inactive)	11.9 µM (inactive)	2.64 µM (inactive)	10.8 µM (inactive)	–
Nc1nc(N)nc(-c2ccccc2NS(=O)(=O)c2ccc([N+](=O)[O-])cc2)n1	42.9 µM (inactive)	45.9 µM (inactive)	81.5 µM (inactive)	67.5 µM (inactive)	54 µM (inactive)	> 52.2 µM (inactive)	–	–	17.3 µM (inactive)	–	–	> 52 µM (inactive)	84.9 µM (inactive)	38.2 µM (inactive)	> 100 µM (inactive)	> 10 µM (inactive)	> 100 µM (inactive)	–	–	> 100 µM (inactive)
COc1ccc(CC(CO)NC(=O)OCc2ccccc2)cc1Oc1ccc(CC(CO)NC(=O)OCc2ccccc2)cc1 (configuration not stated)	15.7 µM (inactive)	6.27 µM (inactive)	16.1 µM (inactive)	15.1 µM (inactive)	13.1 µM (inactive)	0.37 µM (active)	15.6 µM (inactive)	15.3 µM (inactive)	–	15.4 µM (inactive)	13.1 µM (inactive)	–	12.2 µM (inactive)	–	18.3 µM (inactive)	–	15.3 µM (inactive)	10.7 µM (inactive)	26.7 µM (inactive)	7.91 µM (inactive)
